Reference: patent US8975260B2, “Pyridazinones, method of making, and method of use thereof” (Genetech, Inc, priority 2010, dated 2015)

How the values were obtained:
[1] = molecular target: full length human wildtype Btk (Homo sapiens (Human), UniProt Q06187); assay: Biochemical Btk Kinase Assay
Method: Formula I compounds were tested by a standard biochemical Btk Kinase Assay (Example 901). A generalized procedure for a standard biochemical Btk Kinase Assay that can be used to test Formula I compounds is as follows. […] Btk enzyme is prepared as follows: full length human wildtype Btk (accession number NM-000061) with a C-terminal V5 and 6× His tag was subcloned into pFastBac vector for making baculovirus carrying this epitope-tagged Btk. Generation of baculovirus is done based on Invitrogen's instructions detailed in its published protocol “Bac-to-Bac Baculovirus Expression Systems” (Cat. Nos. 10359-016 and 10608-016). […] A quantity of 1.25 μL of compounds in 5% DMSO is transferred to a 96-well ½ area Costar polystyrene plate. […] A quantity of 18.75 μL of master mix minus enzyme (as a negative control) and master mix plus enzyme is transferred to appropriate wells in 96-well ½ area costar polystyrene plate. […] The plate is read using time-resolved fluorescence with a Perkin Elmer Envision using excitation filter 330 nm, emission filter 665 nm, and 2nd emission filter 615 nm. IC50 values are subsequently calculated. Alternatively, the Lanthascreen assay can be used to evaluate Btk activity through quantification of its phosphorylated peptide product. […] Detection is determined on a Perkin Elmer Envision with 340 nm excitation and emission at 495 nm and 520 nm. […]

[2] = tested on: CD69 by B lymphocytes in human whole blood; assay: CD69 Whole Blood Assay; type: cell-based; settings: Lymphocyte; human whole blood activated with goat F(ab')2 anti-human IgM, 20 hours; CD69 positive cells that are also CD20 positive
Text: A CD69 Whole Blood Assay can be conducted on Formula I compounds to determine the ability of compounds to inhibit the production of CD69 by B lymphocytes in human whole blood activated by crosslinking surface IgM with goat F(ab′)2 anti-human IgM (Example 907).
Human blood is obtained from healthy volunteers, with the following restrictions: 1 week drug-free, non-smokers. Blood (approximately 20 mls to test 8 compounds) is collected by venipuncture into Vacutainer® (Becton, Dickinson and Co.) tubes with sodium heparin.
Solutions of Formula I compounds at 10 mM in DMSO are diluted 1:10 in 100% DMSO, then are diluted by three-fold serial dilutions in 100% DMSO for a ten point dose-response curve. The compounds are further diluted 1:10 in PBS and then an aliquot of 5.5 μl of each compound is added in duplicate to a 2 ml 96-well plate; 5.5 μl of 10% DMSO in PBS is added as control and no-stimulus wells. Human whole blood—HWB (100 μl) is added to each well. After mixing the plates are incubated at 37° C., 5% CO2, 100% humidity for 30 minutes. […] Data acquired and Mean Fluorescence Intensity values were obtained using BD Biosciences DIVA Software. Results are initially analyzed by FACS analysis software (Flow Jo). […] The IC50 values are calculated by Prism version 5, using a nonlinear regression curve fit.

Chain of full length human wildtype Btk (Q06187 whole entry): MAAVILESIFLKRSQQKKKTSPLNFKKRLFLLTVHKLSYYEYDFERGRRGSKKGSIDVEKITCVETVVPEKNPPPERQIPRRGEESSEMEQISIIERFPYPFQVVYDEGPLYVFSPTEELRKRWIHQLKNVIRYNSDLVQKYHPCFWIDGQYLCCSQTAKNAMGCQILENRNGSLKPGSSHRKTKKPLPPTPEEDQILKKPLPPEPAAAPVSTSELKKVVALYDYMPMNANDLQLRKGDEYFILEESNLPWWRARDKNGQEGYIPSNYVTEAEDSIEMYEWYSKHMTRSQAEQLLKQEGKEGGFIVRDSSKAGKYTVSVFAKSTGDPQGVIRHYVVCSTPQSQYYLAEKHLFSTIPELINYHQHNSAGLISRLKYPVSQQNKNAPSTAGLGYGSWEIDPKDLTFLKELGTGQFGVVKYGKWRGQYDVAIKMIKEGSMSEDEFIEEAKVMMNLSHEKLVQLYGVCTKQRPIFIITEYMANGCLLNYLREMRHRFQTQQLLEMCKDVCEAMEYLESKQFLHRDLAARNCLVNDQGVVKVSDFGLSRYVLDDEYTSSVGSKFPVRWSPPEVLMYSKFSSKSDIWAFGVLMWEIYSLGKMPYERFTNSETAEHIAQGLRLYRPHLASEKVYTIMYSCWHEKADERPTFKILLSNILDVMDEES

Row | SMILES | melting point [°C] | IC50 [1] [nM] | IC50 [2] [nM]
1 | CCn1ccc(Nc2cc(-c3cccc(N4Cc5cc(C(C)(C)C)ccc5C4=O)c3CO)nn(C)c2=O)n1 [Compound 102, 5-tert-Butyl-2-(3-(5-(1-ethyl-1H-pyrazol-3-ylamino)-1-methyl-6-oxo-1,6-dihydropyridazin-3-yl)-2-(hydroxymethyl)phenyl)isoindolin-1-one] | 174 to 176 | – | –
2 | Cn1nc(-c2cccc(N3Cc4cc(C(C)(C)C)ccc4C3=O)c2CO)cc(Nc2ccncn2)c1=O [Compound 103, 5-tert-Butyl-2-(2-(hydroxymethyl)-3-(1-methyl-6-oxo-5-(pyrimidin-4-ylamino)-1,6-dihydropyridazin-3-yl)phenyl)isoindolin-1-one] | 236 to 238 | – | –
3 | Cn1nc(-c2cccc(N3Cc4cc(C(C)(C)C)ccc4C3=O)c2CO)cc(Nc2ccccn2)c1=O [Compound 104, 5-tert-Butyl-2-(2-(hydroxymethyl)-3-(1-methyl-6-oxo-5-(pyridin-2-ylamino)-1,6-dihydropyridazin-3-yl)phenyl)isoindolin-1-one] | 236 to 237 | – | –
4 | Cn1nc(-c2cccc(N3Cc4cc(C(C)(C)C)ccc4C3=O)c2CO)cc(Nc2ccn(C3CNC3)n2)c1=O [Compound 105, 2-(3-(5-(1-(Azetidin-3-yl)-1H-pyrazol-3-ylamino)-1-methyl-6-oxo-1,6-dihydropyridazin-3-yl)-2-(hydroxymethyl)phenyl)-5-tert-butylisoindolin-1-one] | 202 to 204 | – | –
5 | CCN(C)c1ccc2c(c1)CN(c1cccc(-c3cc(Nc4cc5n(n4)CCN(C)C5)c(=O)n(C)n3)c1CO)C2=O [Compound 106, 5-(Ethyl(methyl)amino)-2-(2-(hydroxymethyl)-3-(1-methyl-5-(5-methyl-4,5,6,7-tetrahydropyrazolo[1,5-a]pyrazin-2-ylamino)-6-oxo-1,6-dihydropyridazin-3-yl)phenyl)isoindolin-1-one] | 145 to 147 | – | –
6 | Cc1c(-c2cc(Nc3cc4n(n3)CCN(C)C4)c(=O)[nH]n2)cccc1N1Cc2ccc(C(C)(C)C)cc2C1=O [Compound 107, 6-tert-Butyl-2-(2-methyl-3-(5-(5-methyl-4,5,6,7-tetrahydropyrazolo[1,5-a]pyrazin-2-ylamino)-6-oxo-1,6-dihydropyridazin-3-yl)phenyl)isoindolin-1-one] | 208 to 210 | 14 | 461
7 | Cc1c(-c2cc(Nc3cc4n(n3)CCN(C)C4)c(=O)n(COP(=O)([O-])[O-])n2)cccc1N1Cc2cc(C(C)(C)C)sc2C1=O.[Na+].[Na+] [Compound 108, Sodium (3-(3-(2-tert-Butyl-6-oxo-4H-thieno[2,3-c]pyrrol-5(6H)-yl)-2-methylphenyl)-5-(5-methyl-4,5,6,7-tetrahydropyrazolo[1,5-a]pyrazin-2-ylamino)-6-oxopyridazin-1(6H)-yl)methyl Phosphate] | 240 to 242 | – | –
8 | CN1CCn2nc(Nc3cc(-c4cccc(N5Cc6cc(C(C)(C)C)ccc6C5=O)c4CO)nn(C)c3=O)cc2C1 [Compound 145, 5-tert-butyl-2-[2-(hydroxymethyl)-3-[1-methyl-5-({5-methyl-4H,5H,6H,7H-pyrazolo[1,5-a]pyrazin-2-yl}amino)-6-oxo-1,6-dihydropyridazin-3-yl]phenyl]-2,3-dihydro-1H-isoindol-1-one] | – | – | 91
